Experimental findings from ChEMBL document CHEMBL1125145, “Antimicrobial properties of N3-(iodoacetyl)-L-2,3-diaminopropanoic acid-peptide conjugates” (1990) are described below.

Test [1] deals with Candida albicans. Description: Rate of transport of compound in Candida albicans ATCC 26278. The format is functional.
Test [2] concerns Candida albicans. Nature of the test: Intracellular cleavage exhibited in Candida albicans ATCC 26278. The format is functional.

In turn, `CCC[C@H](NC(=O)[C@H](N)CCSC)C(=O)N[C@@H](CNC(=O)CI)C(=O)O` returned a Transport rate in test [1] of 0.5 µmol/min/mg. For `CCC[C@H](NC(=O)[C@@H](N)CCSC)C(=O)N[C@@H](CNC(=O)CI)C(=O)O`, the Cleavage rate in test [2] is 3.8 µmol/min/mg. As for `CSCCC(N)C(=O)NC(CNC(=O)CI)C(=O)O` (centres undefined), the Cleavage rate in test [2] came to 3.1 µmol/min/mg. In test [1], this compound yielded a Transport rate of 1.9 µmol/min/mg.
